Laboratory results reported in US20210023099A1, “COMBINATION THERAPY WITH A BET INHIBITOR AND A PROTEASOME INHIBITOR” (Hoffmann-La Roche Inc., priority 2018, published 2021).
Values joined by “and” are separate entries in the source; they are usually repeats but may differ in a detail not shown here. Equal entries are not always repeated.

Assays:
MM1S MM xenografts = assay: In vivo antitumor efficacy against MM1S MM xenografts; details: Day 28, s.c. MM1s xenografts in female CIEA NOG mice, bortezomib 0.5 mg/kg iv 2 x Q7D; for Tumor Regression % / TGI % (Tumor growth inhibition): RG6146 30 mg/kg ip QD D14-28; for TGI % (Tumor growth inhibition): vs control; for npTCR (non-parametric Treatment to Control Ratio): RG6146 30 mg/kg ip QD, CI printed in the line below
Protocol: The in vivo antitumor efficacy of BET inhibitor RG6146 in combination with proteasome inhibitor bortezomib was evaluated against MM1S MM xenografts.
(§1) The original MM1s human Multiple Myeloma cell line (MM) was purchased from ATCC (Manassas, Va., USA). Expansion of tumor cells for the transplantation was done by the TAP CompacT CellBase Cell Culture Roboter according to the protocol. Tumor cell line was routinely cultured in RPMI 1640 medium, FCS 10% and L-Glutamin 2 mM at 37° C. in a water-saturated atmosphere at 5% CO2. Culture passage was performed with trypsin/EDTA 1× splitting twice/week and passage 2 used for transplantation.
(§2) Female CIEA NOG mice (Taconic), age 5-6 weeks at arrival, maintained under specific-pathogen-free condition with daily cycles of 12 h light/12 h darkness according to committed guidelines. Experimental study protocol was reviewed and approved by local government. After arrival animals were maintained in animal facility for one week to get accustomed to new environment and for observation. Continuous health monitoring was carried out on regular basis. Diet food and autoclaved water were provided ad libitum.
(§3) Animals were controlled daily for clinical symptoms and detection of adverse effects. For monitoring throughout the experiment body weight of animals was documented.
(§4) Animal treatment started after randomisation when median tumor size was about 100 mm^3. The vehicle was administered ip once daily (QD) on D14-28. BET inhibitor RG6146 ip treatment at 30 mg/kg was done as single agent and in combination on D14-28. Finally, proteasome inhibitor bortezomib was given i.v. at 0.5 mg/kg as single agent and in combination twice a week for two weeks.
(§5) MM1s human MM cells were s.c. inoculated with Matrigel onto female CIEA-NOG mice. Tumor bearing mice were randomized 14 days later to the indicated study groups and compound treatment initiated. Tumor bearing animals were treated with vehicle control, with the BET inhibitor RG6146 at 30 mg/kg or with proteasome inhibitor bortezomib at 0.5 mg/kg as single agent and in combination thereof.

OPM-2 MM xenografts = assay: In vivo antitumor efficacy against OPM-2 MM xenografts; details: Day 31, s.c. OPM-2 xenografts in female Scid beige mice, bortezomib 0.5 mg/kg iv 2xQ7D; for Tumor Regression % / TGI % (Tumor growth inhibition): RG6146 30 mg/kg ip QD D17-31; for TGI % (Tumor growth inhibition): vs control; for npTCR (non-parametric Treatment to Control Ratio) / Tumor free animal (complete tumor remission): RG6146 30 mg/kg ip QD; for npTCR (non-parametric Treatment to Control Ratio): CI printed in the lines below; for Tumor free animal (complete tumor remission): animals tumor free / group
Protocol: The in vivo antitumor efficacy of BET inhibitor RG6146 in combination with proteasome inhibitor bortezomib was evaluated against OPM-2 MM xenografts.
as §1, with “OPM-2” for “MM1s”
as §2, with “Scid beige” for “CIEA NOG”, “(Charles River),” for “(Taconic),”, “6-7” for “5-6”
as §3
as §4, with “115” for “100”, “D17-31.” for “D14-28.”
as §5, with “OPM-2 human” for “MM1s human”, “female Scid beige” for “female CIEA-NOG”, “randomized 17” for “randomized 14”

SMILES	Tumor Regression % (MM1S MM xenografts) [%]	TGI % (Tumor growth inhibition) (MM1S MM xenografts) [%]	npTCR (non-parametric Treatment to Control Ratio) (MM1S MM xenografts)	Tumor Regression % (OPM-2 MM xenografts) [%]	TGI % (Tumor growth inhibition) (OPM-2 MM xenografts) [%]	npTCR (non-parametric Treatment to Control Ratio) (OPM-2 MM xenografts)	Tumor free animal (complete tumor remission) (OPM-2 MM xenografts)
Cc1sc2c(c1C)C(c1ccc(Cl)cc1)=N[C@@H](CC(=O)NCCCN1CCN(C)CC1)c1nnc(C)n1-2 [RG6146, 2-[(S)-4-(4-chloro-phenyl)-2,3,9-trimethyl-6H-1-thia-5,7,8,9a-tetraaza-cyclopenta[e]azulen-6-yl]-N-[3-(4-methyl-piperazin-1-yl)-propyl]-acetamide]	0	83	0.29	85	>100	0.008	5 out of 10 and 5/10
CC(C)C[C@H](NC(=O)[C@H](Cc1ccccc1)NC(=O)c1cnccn1)B(O)O [bortezomib, [(1R)-3-methyl-1-[[(2S)-3-phenyl-2-(pyrazine-2-carbonylamino)propanoyl]amino]butyl]boronic acid, reference compound]	0	29	0.75	0	60	0.34	0/10
